The target in one test is T1, human α4β7 (Homo sapiens, UniProt P13612+P26010).
T1 construct: expressed in transfected cells
T1 sequence (P13612 34-1032): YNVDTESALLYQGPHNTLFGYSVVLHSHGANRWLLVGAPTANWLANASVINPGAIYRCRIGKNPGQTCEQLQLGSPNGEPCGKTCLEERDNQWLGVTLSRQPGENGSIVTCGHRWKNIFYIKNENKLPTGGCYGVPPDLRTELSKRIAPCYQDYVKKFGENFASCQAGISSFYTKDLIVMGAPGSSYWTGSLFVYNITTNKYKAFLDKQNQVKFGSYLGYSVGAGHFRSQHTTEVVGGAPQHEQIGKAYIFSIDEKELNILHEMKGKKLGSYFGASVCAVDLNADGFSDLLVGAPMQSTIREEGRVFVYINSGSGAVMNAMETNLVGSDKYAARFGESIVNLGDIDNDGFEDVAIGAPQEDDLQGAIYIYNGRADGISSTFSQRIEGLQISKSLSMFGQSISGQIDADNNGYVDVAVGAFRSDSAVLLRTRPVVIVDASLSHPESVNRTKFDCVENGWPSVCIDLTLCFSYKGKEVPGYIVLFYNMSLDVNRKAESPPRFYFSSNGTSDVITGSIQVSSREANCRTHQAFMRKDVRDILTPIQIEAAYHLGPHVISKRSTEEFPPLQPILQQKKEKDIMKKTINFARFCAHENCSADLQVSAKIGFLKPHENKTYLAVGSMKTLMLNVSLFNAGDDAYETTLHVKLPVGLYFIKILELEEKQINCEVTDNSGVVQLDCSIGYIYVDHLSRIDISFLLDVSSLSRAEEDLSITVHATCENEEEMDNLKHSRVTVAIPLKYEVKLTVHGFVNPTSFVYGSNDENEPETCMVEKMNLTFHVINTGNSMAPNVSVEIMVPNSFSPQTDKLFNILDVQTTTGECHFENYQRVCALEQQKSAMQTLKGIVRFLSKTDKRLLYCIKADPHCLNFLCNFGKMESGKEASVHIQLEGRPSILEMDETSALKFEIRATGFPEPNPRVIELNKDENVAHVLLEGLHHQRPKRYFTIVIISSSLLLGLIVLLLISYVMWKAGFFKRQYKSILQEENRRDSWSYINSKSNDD
T1 sequence (P26010 20-798): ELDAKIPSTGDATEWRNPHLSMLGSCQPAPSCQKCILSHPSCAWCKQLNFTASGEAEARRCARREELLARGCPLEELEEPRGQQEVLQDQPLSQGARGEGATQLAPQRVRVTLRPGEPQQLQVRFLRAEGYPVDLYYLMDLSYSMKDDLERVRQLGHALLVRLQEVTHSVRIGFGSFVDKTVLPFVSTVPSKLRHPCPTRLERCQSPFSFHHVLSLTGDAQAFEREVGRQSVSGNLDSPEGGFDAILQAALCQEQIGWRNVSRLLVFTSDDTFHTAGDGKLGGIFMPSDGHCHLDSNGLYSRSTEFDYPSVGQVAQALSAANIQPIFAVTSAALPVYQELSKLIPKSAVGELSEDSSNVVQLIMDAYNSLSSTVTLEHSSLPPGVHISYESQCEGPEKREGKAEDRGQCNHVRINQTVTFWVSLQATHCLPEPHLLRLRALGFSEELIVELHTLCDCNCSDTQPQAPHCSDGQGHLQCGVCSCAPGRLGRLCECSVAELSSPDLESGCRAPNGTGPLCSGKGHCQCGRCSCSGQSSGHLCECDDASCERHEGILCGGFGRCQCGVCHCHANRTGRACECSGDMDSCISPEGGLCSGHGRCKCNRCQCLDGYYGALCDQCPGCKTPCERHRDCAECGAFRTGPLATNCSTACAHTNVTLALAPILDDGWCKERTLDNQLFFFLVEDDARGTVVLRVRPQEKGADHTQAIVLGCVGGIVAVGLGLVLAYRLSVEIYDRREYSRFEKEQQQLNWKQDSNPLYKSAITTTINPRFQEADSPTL
As to the kind of experiment: α4β7-K562 Cell Adhesion Assay (α4β7 Mediated Adhesion/VCAM-1). Format: cell-based. The conditions noted are these: K562 cells expressing human α4β7 on recombinant hVCAM-1; read-out: α4β7 IC50. How it is done: (§1) α4β7-K562 Cell Adhesion Assay (α4β7 Mediated Adhesion/VCAM-1) Immulon 96 well plates (Dynex) were coated with 100 μL recombinant hVCAM-1 at 4.0 μg/mL in 0.05 M NaCO3 buffer pH 9.0 overnight at 4° C. (R&D System). Plates were washed 3 times in PBS with 1% BSA and blocked for 1 h @ room temperature in this buffer. PBS was removed and compounds to be tested (50 μL) were added at 2× concentration. A stable cell line of K562 cells expressing human α4β7, (50 μL at 2×10^6/mL) labeled with 5 μM Calcein AM (Molecular Probes) for 1 h at 37° C., were added to each well and allowed to adhere for 1 h at room temperature. Plates were washed 3× in PBS+1% BSA and cells were lysed for 15 minutes in 100 μL of 1 M Tris pH 8.0 with 1% SDS. The plate was read at 485 nm excitation and 530 nm emission.

The target of the next test is α4β1 (Homo sapiens, UniProt P05556+P13612). As to the kind of experiment: Ramos Cell Adhesion Assay (α4β1 Mediated Adhesion/VCAM-1). The conditions noted are these: Ramos cells on recombinant hVCAM-1; read-out: α4β1 IC50. The arrangement: Ramos cells, (50 μL at 2×10^6/mL) labeled with 5 μM Calcein AM; endogenous in cells; host or cells: Ramos cells. Format: cell-based. How it is done: as §1, with “Ramos” for “α4β7-K562”, “α4β1” for “(α4β7”, “[…]” for “96”, “Systems).” for “System).”, “Ramos cells,” for “A stable cell line of K562 cells expressing human α4β7,”
α4β1, sequence (P05556 21-798, one chain of several): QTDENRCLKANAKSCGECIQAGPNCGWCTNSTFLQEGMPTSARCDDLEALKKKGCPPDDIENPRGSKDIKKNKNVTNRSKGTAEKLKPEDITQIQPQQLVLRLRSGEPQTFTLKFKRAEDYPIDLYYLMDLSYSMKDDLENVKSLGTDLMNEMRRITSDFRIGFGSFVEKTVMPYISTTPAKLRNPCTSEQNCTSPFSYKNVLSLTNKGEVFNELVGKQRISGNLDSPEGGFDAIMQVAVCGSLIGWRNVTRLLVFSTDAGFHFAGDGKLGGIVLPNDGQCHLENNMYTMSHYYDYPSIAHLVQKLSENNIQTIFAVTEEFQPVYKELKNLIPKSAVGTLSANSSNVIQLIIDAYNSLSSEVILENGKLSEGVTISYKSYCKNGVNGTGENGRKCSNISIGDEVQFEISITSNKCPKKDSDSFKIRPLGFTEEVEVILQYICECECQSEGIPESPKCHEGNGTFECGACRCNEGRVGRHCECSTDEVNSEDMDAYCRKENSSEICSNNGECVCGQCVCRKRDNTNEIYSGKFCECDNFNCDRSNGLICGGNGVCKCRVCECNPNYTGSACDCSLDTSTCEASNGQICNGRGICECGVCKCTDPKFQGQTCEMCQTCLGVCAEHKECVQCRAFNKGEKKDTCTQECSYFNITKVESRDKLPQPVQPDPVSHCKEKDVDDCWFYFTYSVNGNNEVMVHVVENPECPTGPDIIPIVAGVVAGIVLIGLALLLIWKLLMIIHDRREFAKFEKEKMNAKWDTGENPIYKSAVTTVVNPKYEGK

One may read the IC50 as the midpoint of a concentration-inhibition curve.

A value given as a limit tells only on which side of the number the result lay.

For `CC(=Cc1ccccc1)C(=O)N1C2CCC(CC2)C1C(=O)NC(Cc1ccc(NC(=O)c2c(Cl)cncc2Cl)cc1)C(=O)O` (centres unmarked) [Cpd 40], the figures for the IC50 on human α4β7 and at α4β1 were 943 nM and 77 nM, respectively.
As for `O=C(Nc1ccc(CC(NC(=O)C2C3CCC(CC3)N2C(=O)c2ccccc2C(F)(F)F)C(=O)O)cc1)c1c(Cl)cncc1Cl` (centres unmarked) [Cpd 12], the IC50 was 739 nM at human α4β7 and 460 nM at α4β1.
On to `O=C(Nc1ccc(CC(NC(=O)C2C3CCC(CC3)N2C(=O)C=Cc2ccc3c(c2)OCO3)C(=O)O)cc1)c1c(Cl)cncc1Cl` (centres unmarked) [Cpd 46], for which the IC50 is 476 nM on human α4β7 and above 5000 nM at α4β1.
The corresponding values for `O=C(Nc1ccc(CC(NC(=O)C2C3CCC(CC3)N2C(=O)c2ccccc2F)C(=O)O)cc1)c1c(Cl)cncc1Cl` (mixture of isomers) [Cpd 9] are 151 nM and 436 nM.
The like results for `O=C(Nc1ccc(CC(NC(=O)C2C3CCC(CC3)N2C(=O)Cc2ccccn2)C(=O)O)cc1)c1c(Cl)cncc1Cl` (centres unmarked) [Cpd 4] were, in that order, 32 nM and 25 nM.
The corresponding values for `O=C(Nc1ccc(CC(NC(=O)C2C3CCC(CC3)N2C(=O)Cc2ccncc2)C(=O)O)cc1)c1c(Cl)cncc1Cl` (centres unmarked) [Cpd 44] are 32 nM and 3 nM.
On to `O=C(Nc1ccc(CC(NC(=O)C2C3CCC(CC3)N2C(=O)OCc2ccccc2)C(=O)O)cc1)c1c(Cl)cncc1Cl` (centres unmarked) [Cpd 64], for which the figures for the IC50 at human α4β7 and at α4β1 were 24 nM and 9 nM, respectively.
`O=C(Nc1ccc(CC(NC(=O)C2C3CCC(CC3)N2C(=O)c2cc(Cl)cc(Cl)c2)C(=O)O)cc1)c1c(Cl)cncc1Cl` (centres unmarked) [Cpd 10]: the values for the IC50 at human α4β7 and on α4β1 were 185 nM and 842 nM, respectively.
The corresponding values for `O=C(Nc1ccc(CC(NC(=O)C2C3CCC(CC3)N2C(=O)C#Cc2ccccc2)C(=O)O)cc1)c1c(Cl)cncc1Cl` (centres unmarked) [Cpd 57] are 27 nM and 9 nM.
The like results for `O=C(Nc1ccc(CC(NC(=O)C2C3CCC(CC3)N2C(=O)NCc2ccccc2)C(=O)O)cc1)c1c(Cl)cncc1Cl` (centres unmarked) [Cpd 25] were, in that order, 379 nM and 72 nM.
The corresponding values for `O=C(Nc1ccc(CC(NC(=O)C2C3CCC(CC3)N2C(=O)Nc2cccc(Cl)c2)C(=O)O)cc1)c1c(Cl)cncc1Cl` (centres unmarked) [Cpd 23] are 444 nM and 248 nM.
For `CC(C)(C)CC(=O)N1C2CCC(CC2)C1C(=O)NC(Cc1ccc(NC(=O)c2c(Cl)cncc2Cl)cc1)C(=O)O` (centres unmarked) [Cpd 27], the 50% inhibitory concentration (IC50) on human α4β7 is 834 nM; on α4β1, 386 nM.
The like results for `O=C(Nc1ccc(CC(NC(=O)C2C3CCC(CC3)N2C(=O)Cc2cccnc2)C(=O)O)cc1)c1c(Cl)cncc1Cl` (centres unmarked) [Cpd 5] were, in that order, 62 nM and 20 nM.
The corresponding values for `CC(C)(C)OC(=O)N1CCN(CCC(=O)N2C3CCC(CC3)C2C(=O)NC(Cc2ccc(NC(=O)c3c(Cl)cncc3Cl)cc2)C(=O)O)CC1` (centres unmarked) [Cpd 35] are above 5000 nM and 122 nM.
The like results for `O=C(Nc1ccc(CC(NC(=O)C2C3CCC(CC3)N2C(=O)CCC2CCCC2)C(=O)O)cc1)c1c(Cl)cncc1Cl` (centres unmarked) [Cpd 28] were, in that order, 150 nM and 89 nM.
Regarding `CN(C)c1ccc(CC(=O)N2C3CCC(CC3)C2C(=O)NC(Cc2ccc(NC(=O)c3c(Cl)cncc3Cl)cc2)C(=O)O)cc1` (centres unmarked) [Cpd 56], the IC50 is 23 nM on human α4β7 and 2 nM at α4β1.
For `Cc1ccc(CCN2C3CCC(CC3)C2C(=O)NC(Cc2ccc(NC(=O)c3c(Cl)cncc3Cl)cc2)C(=O)O)cc1` (centres unmarked) [Cpd 58], the IC50 on human α4β7 is 16 nM; at α4β1 it was 201 nM.
The like results for `COc1cccc(CC(=O)N2C3CCC(CC3)C2C(=O)NC(Cc2ccc(NC(=O)c3c(Cl)cncc3Cl)cc2)C(=O)O)c1` (centres unmarked) [Cpd 59] were, in that order, 255 nM and 504 nM.
The corresponding values for `CC(C)CCC(=O)N1C2CCC(CC2)C1C(=O)NC(Cc1ccc(NC(=O)c2c(Cl)cncc2Cl)cc1)C(=O)O` (centres unmarked) [Cpd 38] are 15 nM and 5 nM.

Source of the values: patent US20060223846A1, “Aza-bridged-bicyclic amino acid derivatives as alpha4 integrin antagonists” (priority 2005, published 2006).
